Source: ChEMBL document CHEMBL5120829, “Discovery and structural optimization of potent epidermal growth factor receptor (EGFR) inhibitors against L858R/T790M/C797S resistance mutation for lung cancer treatment” (Eur J Med Chem, 2022)
Active and inactive are the calls of the source. The rule behind the calls is not given here.

Columns and labels:
[1] = test system: Epidermal growth factor receptor (Homo sapiens), P00533 [L858R,T790M,C797S]; experiment: Inhibition of EGFR phosphorylation in human PC-9 cells expressing EGFR L858R/T790M/C797S mutant at 0.01 to 1 uM by Western blot analysis; assay type: cell-based; conditions: dose 0.01-1 µM
[2] = Volume of distribution at steady state in overnight fasted Sprague-Dawley rat at 20 mg/kg, iv by HPLC analysis; assay type: ADME, organism-based; conditions: in vivo, read-out: Vdss
[3] = Clearance in overnight fasted Sprague-Dawley rat at 20 mg/kg, iv by HPLC analysis; assay type: ADME, organism-based; conditions: in vivo
[4] = Volume of distribution at steady state in overnight fasted Sprague-Dawley rat at 20 mg/kg, po by HPLC analysis; assay type: ADME, organism-based; conditions: in vivo
[5] = test system: PC-9; experiment: Induction of apoptosis in human PC-9 cells expressing EGFR L858R/T790M/C797S mutant assessed as early apoptotic cells at 0.01 uM incubated for 24 hrs by annexin-V/propidium iodide staining-based flow cytometry analysis (reference value: 0.3 %); assay type: functional
[6] = test system: PC-9; experiment: Induction of apoptosis in human PC-9 cells expressing EGFR L858R/T790M/C797S mutant assessed as late apoptotic cells at 0.01 uM incubated for 24 hrs by annexin-V/propidium iodide staining-based flow cytometry analysis (reference value: 0.14 %); assay type: functional
[7] = target: Serine/threonine-protein kinase AKT (Homo sapiens) (UniProt P31751+Q9Y243+P31749); experiment: Inhibition of AKT phosphorylation in human PC-9 cells expressing EGFR L858R/T790M/C797S mutant at 0.01 to 1 uM by Western blot analysis; assay type: cell-based; conditions: dose 0.01-1 µM
[8] = Half life in overnight fasted Sprague-Dawley rat at 20 mg/kg, iv by HPLC analysis; assay type: ADME, organism-based; conditions: in vivo
[9] = test system: A-431; experiment: Antiproliferative activity against human A-431 cells assessed as inhibition of cell growth incubated for 72 hrs by CCK-8 assay; assay type: functional, cell-based; conditions: A-431, 72 h
[10] = test system: PC-9; experiment: Antiproliferative activity against human PC-9 cells expressing EGFR L858R/T790M/C797S mutant assessed as inhibition of cell growth incubated for 72 hrs by CCK-8 assay; assay type: functional, cell-based; conditions: PC-9, 72 h
[11] = Toxicity in BALB/c nude mouse xenografted with human PC-9 cells expressing EGFR L858R/T790M/C797S mutant assessed as body weight loss at 10 to 40 mg/kg, po measured every day for 18 days; assay type: organism-based; conditions: in vivo, 432 h, dose 10-40 mg/kg, time 18 day
[12] = test system: PC-9; experiment: Induction of apoptosis in human PC-9 cells expressing EGFR L858R/T790M/C797S mutant assessed as viable cells at 0.05 uM incubated for 24 hrs by annexin-V/propidium iodide staining-based flow cytometry analysis (reference value: 99.1 %); assay type: functional; conditions: read-out: Activity
[13] = AUC(0 to infinity) in overnight fasted Sprague-Dawley rat at 20 mg/kg, po by HPLC analysis; assay type: ADME, organism-based; design: time infinity, dose 20 mg/kg, route po; conditions: in vivo
[14] = AUC(0 to infinity) in overnight fasted Sprague-Dawley rat at 20 mg/kg, iv by HPLC analysis; assay type: ADME, organism-based; design: time infinity, dose 20 mg/kg, route iv; conditions: in vivo
[15] = Tmax in overnight fasted Sprague-Dawley rat at 20 mg/kg, po by HPLC analysis; assay type: ADME, organism-based; conditions: in vivo
[16] = Cmax in overnight fasted Sprague-Dawley rat at 20 mg/kg, iv by HPLC analysis; assay type: ADME, organism-based; design: dose 20 mg/kg, route iv; conditions: in vivo
[17] = test system: PC-9; experiment: Induction of apoptosis in human PC-9 cells expressing EGFR L858R/T790M/C797S mutant assessed as late apoptotic cells at 0.05 uM incubated for 24 hrs by annexin-V/propidium iodide staining-based flow cytometry analysis (reference value: 0.14 %); assay type: functional
[18] = Tmax in overnight fasted Sprague-Dawley rat at 20 mg/kg, iv by HPLC analysis; assay type: ADME, organism-based; conditions: in vivo
[19] = test system: PC-9; experiment: Induction of apoptosis in human PC-9 cells expressing EGFR L858R/T790M/C797S mutant assessed as dead cells at 0.05 uM incubated for 24 hrs by annexin-V/propidium iodide staining-based flow cytometry analysis (reference value: 0.43 %); assay type: functional
[20] = test system: PC-9; experiment: Induction of apoptosis in human PC-9 cells expressing EGFR L858R/T790M/C797S mutant assessed as early apoptotic cells at 0.25 uM incubated for 24 hrs by annexin-V/propidium iodide staining-based flow cytometry analysis (reference value: 0.3 %); assay type: functional
[21] = test system: PC-9; experiment: Induction of apoptosis in human PC-9 cells expressing EGFR L858R/T790M/C797S mutant assessed as dead cells at 0.01 uM incubated for 24 hrs by annexin-V/propidium iodide staining-based flow cytometry analysis (reference value: 0.43 %); assay type: functional
[22] = Half life in overnight fasted Sprague-Dawley rat at 20 mg/kg, po by HPLC analysis; assay type: ADME, organism-based; conditions: in vivo
[23] = test system: PC-9; experiment: Cell cycle arrest in human PC-9 cells expressing EGFR L858R/T790M/C797S mutant assessed as increase in accumulation of cells at G0/G1 phase at 0.01 to 1 uM incubated for 24 hrs by RNase/PI staining based flow cytometry analysis; assay type: functional; conditions: dose 0.01-1 µM
[24] = test system: PC-9; experiment: Antitumor activity against human PC-9 cells expressing EGFR L858R/T790M/C797S mutant xenografted in BALB/c nude mouse assessed as reduction in tumor weight at 10 to 40 mg/kg, po measured every day for 18 days by digital vernier caliper analysis; assay type: functional, organism-based; conditions: dose 10-40 mg/kg, time 18.0 day
[25] = target: Signal transducer and activator of transcription 3 (Homo sapiens) (UniProt P40763); experiment: Inhibition of STAT3 phosphorylation in human PC-9 cells expressing EGFR L858R/T790M/C797S mutant at 0.01 to 1 uM by Western blot analysis; assay type: cell-based; conditions: dose 0.01-1 µM
[26] = test system: A549; experiment: Antiproliferative activity against human A549 cells assessed as inhibition of cell growth incubated for 72 hrs by CCK-8 assay; assay type: functional, cell-based; conditions: A549, 72 h
[27] = test system: PC-9; experiment: Induction of apoptosis in human PC-9 cells expressing EGFR L858R/T790M/C797S mutant assessed as viable cells at 0.01 uM incubated for 24 hrs by annexin-V/propidium iodide staining-based flow cytometry analysis (reference value: 99.1 %); assay type: functional; conditions: read-out: Activity
[28] = MRT (0 to infinity) in overnight fasted Sprague-Dawley rat at 20 mg/kg, iv by HPLC analysis; assay type: ADME, organism-based; conditions: in vivo
[29] = MRT (0 to infinity) in overnight fasted Sprague-Dawley rat at 20 mg/kg, po by HPLC analysis; assay type: ADME, organism-based; conditions: in vivo
[30] = test system: Epidermal growth factor receptor (Homo sapiens), P00533 [L858R,T790M,C797S]; experiment: Inhibition of EGFR L858R/T790M/C797S mutant (unknown origin) at 0.5 uM relative to control
[31] = Cmax in overnight fasted Sprague-Dawley rat at 20 mg/kg, po by HPLC analysis; assay type: ADME, organism-based; design: dose 20 mg/kg, route po; conditions: in vivo
[32] = Clearance in overnight fasted Sprague-Dawley rat at 20 mg/kg, po by HPLC analysis; assay type: ADME, organism-based; conditions: in vivo
[33] = test system: PC-9; experiment: Induction of apoptosis in human PC-9 cells expressing EGFR L858R/T790M/C797S mutant assessed as late apoptotic cells at 0.25 uM incubated for 24 hrs by annexin-V/propidium iodide staining-based flow cytometry analysis (reference value: 0.14 %); assay type: functional
[34] = test system: PC-9; experiment: Induction of apoptosis in human PC-9 cells expressing EGFR L858R/T790M/C797S mutant assessed as early apoptotic cells at 0.05 uM incubated for 24 hrs by annexin-V/propidium iodide staining-based flow cytometry analysis (reference value: 0.3 %); assay type: functional
[35] = test system: PC-9; experiment: Induction of apoptosis in human PC-9 cells expressing EGFR L858R/T790M/C797S mutant assessed as viable cells at 0.25 uM incubated for 24 hrs by annexin-V/propidium iodide staining-based flow cytometry analysis (reference value: 99.1 %); assay type: functional
[36] = Oral bioavailability in overnight fasted Sprague-Dawley rat at 20 mg/kg by HPLC analysis; assay type: ADME, organism-based; conditions: in vivo
[37] = test system: Epidermal growth factor receptor (Homo sapiens), P00533 [L858R,T790M,C797S]; experiment: Inhibition of EGFR L858R/T790M/C797S mutant (unknown origin) at 1 uM relative to control
[38] = test system: PC-9; experiment: Induction of apoptosis in human PC-9 cells expressing EGFR L858R/T790M/C797S mutant assessed as dead cells at 0.25 uM incubated for 24 hrs by annexin-V/propidium iodide staining-based flow cytometry analysis (reference value: 0.43 %); assay type: functional
[39] = test system: PC-9; experiment: Antitumor activity against human PC-9 cells expressing EGFR L858R/T790M/C797S mutant xenografted in po dosed BALB/c nude mouse assessed as inhibition of tumor growth measured every other day for 18 days by digital vernier caliper analysis; assay type: functional, organism-based; conditions: dose 10-40 mg/kg, time 18.0 day, DDE = dose-dependent effect
[40] = target: Epidermal growth factor receptor (Homo sapiens, UniProt P00533, C797S/L858R/T790M); experiment: Inhibition of EGFR L858R/T790M/C797S mutant (unknown origin)
Epidermal growth factor receptor, sequence (P00533 25-1210 T790M/C797S/L858R limits assumed): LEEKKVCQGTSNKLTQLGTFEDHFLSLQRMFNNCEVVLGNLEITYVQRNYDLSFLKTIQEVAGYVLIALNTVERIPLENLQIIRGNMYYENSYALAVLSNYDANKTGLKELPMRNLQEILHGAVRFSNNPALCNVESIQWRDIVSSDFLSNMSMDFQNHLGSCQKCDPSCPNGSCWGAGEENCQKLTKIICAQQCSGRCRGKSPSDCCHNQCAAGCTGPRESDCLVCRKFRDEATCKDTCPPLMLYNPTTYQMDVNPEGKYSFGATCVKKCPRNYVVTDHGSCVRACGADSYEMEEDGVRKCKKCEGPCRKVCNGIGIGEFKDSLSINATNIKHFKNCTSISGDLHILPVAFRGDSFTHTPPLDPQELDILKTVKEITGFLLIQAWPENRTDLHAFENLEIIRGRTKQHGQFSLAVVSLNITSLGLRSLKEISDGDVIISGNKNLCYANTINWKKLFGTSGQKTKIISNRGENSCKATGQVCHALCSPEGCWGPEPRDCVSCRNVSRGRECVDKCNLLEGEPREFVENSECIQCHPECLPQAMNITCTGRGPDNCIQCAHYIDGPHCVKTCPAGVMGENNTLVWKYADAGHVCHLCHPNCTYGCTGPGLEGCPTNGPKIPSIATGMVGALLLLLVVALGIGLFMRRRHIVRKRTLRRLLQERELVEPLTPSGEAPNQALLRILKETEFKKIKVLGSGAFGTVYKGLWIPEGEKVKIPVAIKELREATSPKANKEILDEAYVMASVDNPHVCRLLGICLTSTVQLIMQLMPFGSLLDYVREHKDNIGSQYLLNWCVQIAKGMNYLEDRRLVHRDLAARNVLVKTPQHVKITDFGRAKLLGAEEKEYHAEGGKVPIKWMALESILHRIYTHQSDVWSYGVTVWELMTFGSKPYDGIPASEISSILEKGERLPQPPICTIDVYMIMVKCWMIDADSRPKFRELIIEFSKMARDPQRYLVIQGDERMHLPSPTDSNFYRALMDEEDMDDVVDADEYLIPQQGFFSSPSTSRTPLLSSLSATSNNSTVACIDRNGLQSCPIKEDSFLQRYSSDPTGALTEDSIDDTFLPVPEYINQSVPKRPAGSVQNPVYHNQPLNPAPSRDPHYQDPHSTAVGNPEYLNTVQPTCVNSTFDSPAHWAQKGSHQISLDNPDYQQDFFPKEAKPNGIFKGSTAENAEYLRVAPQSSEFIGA

Epidermal growth factor receptor (Homo sapiens), P00533 [L858R,T790M,C797S], sequence (P00533 whole entry T790M/C797S/L858R): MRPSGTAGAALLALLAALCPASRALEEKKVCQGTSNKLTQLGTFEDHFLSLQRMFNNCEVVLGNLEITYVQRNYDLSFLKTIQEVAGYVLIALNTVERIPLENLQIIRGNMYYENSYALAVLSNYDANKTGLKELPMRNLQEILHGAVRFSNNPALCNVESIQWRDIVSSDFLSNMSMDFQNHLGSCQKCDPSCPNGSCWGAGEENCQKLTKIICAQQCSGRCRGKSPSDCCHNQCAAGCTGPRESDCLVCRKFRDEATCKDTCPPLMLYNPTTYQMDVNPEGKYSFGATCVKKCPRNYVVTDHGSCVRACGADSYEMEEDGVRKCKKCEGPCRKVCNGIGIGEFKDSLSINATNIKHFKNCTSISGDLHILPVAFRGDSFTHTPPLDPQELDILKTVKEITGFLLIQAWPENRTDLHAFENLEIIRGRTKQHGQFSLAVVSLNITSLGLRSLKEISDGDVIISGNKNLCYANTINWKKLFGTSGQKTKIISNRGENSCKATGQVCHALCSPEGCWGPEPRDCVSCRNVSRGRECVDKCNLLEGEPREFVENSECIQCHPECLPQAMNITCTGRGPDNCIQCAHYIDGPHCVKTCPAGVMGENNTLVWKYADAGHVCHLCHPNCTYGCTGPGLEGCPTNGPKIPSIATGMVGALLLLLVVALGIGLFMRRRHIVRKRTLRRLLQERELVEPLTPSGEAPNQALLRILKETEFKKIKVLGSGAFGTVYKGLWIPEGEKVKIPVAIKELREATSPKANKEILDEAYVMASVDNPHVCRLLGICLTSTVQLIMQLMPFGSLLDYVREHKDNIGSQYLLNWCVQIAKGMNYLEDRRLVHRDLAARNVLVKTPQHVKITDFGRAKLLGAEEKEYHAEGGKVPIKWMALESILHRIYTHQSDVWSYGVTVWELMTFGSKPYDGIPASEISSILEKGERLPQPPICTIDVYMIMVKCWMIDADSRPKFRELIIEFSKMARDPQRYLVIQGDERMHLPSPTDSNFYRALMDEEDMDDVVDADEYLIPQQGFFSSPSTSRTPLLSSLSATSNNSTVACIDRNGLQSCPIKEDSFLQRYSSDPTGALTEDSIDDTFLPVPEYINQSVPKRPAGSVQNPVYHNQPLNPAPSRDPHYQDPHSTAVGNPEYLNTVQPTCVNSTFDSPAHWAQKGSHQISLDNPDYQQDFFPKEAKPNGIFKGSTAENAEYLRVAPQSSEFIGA
Signal transducer and activator of transcription 3 (Homo sapiens), sequence (P40763 whole entry): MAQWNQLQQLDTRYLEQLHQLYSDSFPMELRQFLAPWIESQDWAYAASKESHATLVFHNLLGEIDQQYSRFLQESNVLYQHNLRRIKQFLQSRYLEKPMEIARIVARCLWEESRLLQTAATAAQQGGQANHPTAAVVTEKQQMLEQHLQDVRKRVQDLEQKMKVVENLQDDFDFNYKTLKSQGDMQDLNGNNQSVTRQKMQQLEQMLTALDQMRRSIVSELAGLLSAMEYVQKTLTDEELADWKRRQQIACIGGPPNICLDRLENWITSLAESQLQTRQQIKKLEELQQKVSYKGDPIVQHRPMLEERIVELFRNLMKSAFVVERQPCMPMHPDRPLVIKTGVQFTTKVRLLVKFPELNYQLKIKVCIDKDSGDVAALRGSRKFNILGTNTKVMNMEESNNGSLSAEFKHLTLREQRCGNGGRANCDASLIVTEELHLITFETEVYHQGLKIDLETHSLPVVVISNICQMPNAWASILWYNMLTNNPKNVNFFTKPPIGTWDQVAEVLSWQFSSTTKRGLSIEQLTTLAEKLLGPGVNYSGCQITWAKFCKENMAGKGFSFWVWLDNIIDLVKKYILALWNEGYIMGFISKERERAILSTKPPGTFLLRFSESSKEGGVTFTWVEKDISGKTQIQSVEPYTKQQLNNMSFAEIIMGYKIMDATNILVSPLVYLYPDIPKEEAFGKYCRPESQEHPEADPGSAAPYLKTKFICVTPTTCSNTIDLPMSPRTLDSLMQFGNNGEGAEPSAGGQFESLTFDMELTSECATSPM
Serine/threonine-protein kinase AKT (Homo sapiens), sequence (P31749 whole entry, looked up): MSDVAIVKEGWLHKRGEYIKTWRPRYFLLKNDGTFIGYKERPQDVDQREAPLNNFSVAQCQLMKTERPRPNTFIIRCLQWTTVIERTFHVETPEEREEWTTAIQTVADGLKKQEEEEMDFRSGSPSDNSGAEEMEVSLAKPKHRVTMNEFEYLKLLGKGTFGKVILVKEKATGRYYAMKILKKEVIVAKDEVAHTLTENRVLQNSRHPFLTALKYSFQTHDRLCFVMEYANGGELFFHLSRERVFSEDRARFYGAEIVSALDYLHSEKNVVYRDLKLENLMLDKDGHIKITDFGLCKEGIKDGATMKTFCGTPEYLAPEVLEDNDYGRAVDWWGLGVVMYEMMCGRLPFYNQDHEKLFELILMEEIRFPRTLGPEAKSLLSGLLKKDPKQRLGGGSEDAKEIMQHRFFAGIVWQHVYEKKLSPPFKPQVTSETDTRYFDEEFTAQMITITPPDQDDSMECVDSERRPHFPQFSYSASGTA
Serine/threonine-protein kinase AKT (Homo sapiens), sequence (P31751 whole entry, looked up): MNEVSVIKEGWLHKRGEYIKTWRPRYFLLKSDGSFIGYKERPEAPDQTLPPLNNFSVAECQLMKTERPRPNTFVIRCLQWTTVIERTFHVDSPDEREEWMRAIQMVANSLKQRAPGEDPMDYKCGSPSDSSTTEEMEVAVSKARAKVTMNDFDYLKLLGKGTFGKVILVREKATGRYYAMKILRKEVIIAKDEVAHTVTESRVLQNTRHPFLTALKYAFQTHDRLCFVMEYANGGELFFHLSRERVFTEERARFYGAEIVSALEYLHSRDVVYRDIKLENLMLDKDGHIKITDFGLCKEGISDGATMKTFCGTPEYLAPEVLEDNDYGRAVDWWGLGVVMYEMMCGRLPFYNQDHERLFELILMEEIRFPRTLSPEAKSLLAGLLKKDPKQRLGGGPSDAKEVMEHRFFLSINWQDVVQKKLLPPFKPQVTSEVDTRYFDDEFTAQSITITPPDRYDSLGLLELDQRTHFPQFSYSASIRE
Serine/threonine-protein kinase AKT (Homo sapiens), sequence (Q9Y243 whole entry, looked up): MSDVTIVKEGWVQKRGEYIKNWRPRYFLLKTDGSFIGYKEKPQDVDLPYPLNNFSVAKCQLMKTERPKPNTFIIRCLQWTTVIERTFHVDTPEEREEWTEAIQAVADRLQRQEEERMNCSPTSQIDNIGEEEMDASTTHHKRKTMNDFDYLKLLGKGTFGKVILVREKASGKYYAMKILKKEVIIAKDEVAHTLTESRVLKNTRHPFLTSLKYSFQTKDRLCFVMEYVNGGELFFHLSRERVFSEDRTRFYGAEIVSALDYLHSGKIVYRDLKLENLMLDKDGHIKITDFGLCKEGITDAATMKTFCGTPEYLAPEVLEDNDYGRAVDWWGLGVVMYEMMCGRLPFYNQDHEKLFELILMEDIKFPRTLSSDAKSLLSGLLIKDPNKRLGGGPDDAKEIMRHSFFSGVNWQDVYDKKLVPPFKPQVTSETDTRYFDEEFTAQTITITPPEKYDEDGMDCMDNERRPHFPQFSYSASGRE

CN1CCN(c2ccc(Nc3ncc4cc(CNc5ccccc5)n(C5CCCC5)c4n3)cc2)CC1
inhibition [1]: Active | Vd [2]: 16 L/kg | clearance [3]: 21.2 mL/min/kg | Vdss [4]: 28.101 L/kg | Activity [5]: 1.21% | Activity [6]: 4.53% | inhibition [7]: Active | half-life [8]: 8.92 h | IC50 [9]: 2970 nM | IC50 [10]: 13 nM | Activity [11]: Non-Toxic | viability at 0.05 µM [12]: 88.2% | AUC(0-inf) [13]: 10500 ng·h/mL | AUC(0-inf) [14]: 15900 ng·h/mL | Tmax [15]: 6 h | Cmax [16]: 6840 ng/mL | Activity [17]: 5.21% | Tmax [18]: 4.98 min | Activity [19]: 1.11% | Activity [20]: 6.8% | Activity [21]: 1.14% | half-life [22]: 11.2 h | Activity [23]: Active | Activity [24]: Active | inhibition [25]: Active | IC50 [26]: 1030 nM | viability at 0.01 µM [27]: 93.1% | MRT inf [28]: 16.4 h | MRT inf [29]: 16.8 h | inhibition [30]: 83% | Cmax [31]: 770 ng/mL | CL/F [32]: 35.9 mL/min/kg | Activity [33]: 10.7% | Activity [34]: 5.43% | viability at 0.25 µM ([35]; Homo sapiens, PC-9, read-out: Activity): 75.4% | bioavailability [36]: 66% | inhibition [37]: 90% | Activity [38]: 7.03% | Activity [39]: Dde | IC50 [40]: 17 nM

C=CC(=O)Nc1cc(Nc2nccc(-c3cn(C)c4ccccc34)n2)c(OC)cc1N(C)CCN(C)C [OSIMERTINIB]
IC50 [9]: […] | IC50 [10]: 3250 nM | Activity [20]: 3.83% | IC50 [26]: 784 nM | Activity [33]: 4.75% | Activity [35]: 90.3% | Activity [38]: 1.1%

COc1cc(N2CCC(N(C)C)CC2)ccc1Nc1ncc2cc(CNc3ccccc3)n(C3CCCC3)c2n1
IC50 [9]: 3080 nM | IC50 [10]: 261 nM | IC50 [26]: 1630 nM | inhibition [30]: 80% | inhibition [37]: 83% | IC50 [40]: 10 nM

COc1cc(N2CCC(N3CCN(C)CC3)CC2)ccc1Nc1ncc2cc(CNc3ccccc3)n(C3CCCC3)c2n1
IC50 [9]: 3150 nM | IC50 [10]: 206 nM | IC50 [26]: 2980 nM | inhibition [30]: 78% | inhibition [37]: 82% | IC50 [40]: 55 nM

CN(C)CCN(C)c1ccc(Nc2ncc3cc(CNc4ccccc4)n(C4CCCC4)c3n2)cc1
IC50 [9]: 1120 nM | IC50 [10]: 248 nM | IC50 [26]: 426 nM | inhibition [30]: 88% | inhibition [37]: 90% | IC50 [40]: 304 nM
